viability, CC50 and Activity data for 31 compounds are collected here from ChEMBL document CHEMBL3808275, “Design, synthesis and SARs of novel salicylanilides as potent inhibitors of RANKL-induced osteoclastogenesis and bone resorption” (Eur J Med Chem, 2016).

A word on the CC50: it is the concentration at which the toxic effect on the cells reaches its halfway point.

Data set [1] can be described thus: Cytotoxicity against mouse RAW264.7 cells assessed as survival rate at 2.5 uM after 24 hrs by MTT assay. Format: cell-based. The conditions noted are these: read-out: Survival.
A short description of data set [2]: Cytotoxicity against mouse RAW264.7 cells assessed as reduction in cell viability after 24 hrs by MTT assay. In kind it is cell-based. (In general: Formazan colour is commonly taken as a measure of viable cells.)
In data set [3] the test system is RAW264.7. Put plainly: Cytotoxicity against mouse RAW264.7 cells assessed as reduction in cell viability at 5 uM after 24 hrs by MTT assay. Format: cell-based. The following applies: raw264.7, 24 h.
The subject of data set [4] is RAW264.7. Put plainly: Inhibition of RANKL-induced osteoclast differentiation in mouse RAW264.7 cells assessed as TRAP-positive multinucleated cells level at 2.5 uM incubated with compound in presence of RANKL for 4 days by TRAP staining based light microscopic analysis relative to RANKL alone. Format: functional. Also noted: scale not given: the % may be the effect or the level left.

Take `O=C(Nc1ccc(I)cc1F)c1cc(I)ccc1O`: the viability at 24 h, 2.5 µM in data set [1] stood at 94.2%. Also, the CC50 at 24 h in data set [2] is 6 µM. Moreover, the Activity entry is reported as “Toxic” with RAW264.7 [3] and 35.1% with RAW264.7 [4].

With `O=c1oc2ccc(Br)cc2c(=O)n1-c1ccc(Cl)cc1F`, the viability at 24 h, 2.5 µM in data set [1] is 82.1%. For the same compound, the CC50 at 24 h in data set [2] worked out at 7.5 µM. Besides, the Activity result was “Toxic” in the data set on RAW264.7 [3] and 67.4% in the data set on RAW264.7 [4].

With `O=C(Nc1ccc(Br)cc1F)c1cc(Br)ccc1O`, the viability at 24 h, 2.5 µM in data set [1] stood at 99.5%. The CC50 at 24 h in data set [2] was 7.8 µM. The Activity result was “Toxic” with RAW264.7 [3] and 33.1% in the data set on RAW264.7 [4].

In the case of `O=C1c2cc(Br)ccc2Oc2cc([N+](=O)[O-])ccc2N1c1ccc(Cl)cc1F`, the viability at 24 h, 2.5 µM in data set [1] turned out to be 102%. Moreover, the CC50 at 24 h in data set [2] was more than 40 µM. In addition, the Activity entry is reported as “Toxic” with RAW264.7 [3] and 67.1% in the data set with RAW264.7 [4].

Turning to `O=c1oc2ccc(I)cc2c(=O)n1-c1ccc(Cl)cc1F`, the viability at 24 h, 2.5 µM in data set [1] worked out at 117%. Further, the CC50 at 24 h in data set [2] amounted to 8.9 µM. The Activity entry in the data set with RAW264.7 [3] was “Toxic”; with RAW264.7 [4] it was 38%.

Consider `O=C(Nc1ccc(F)cc1F)c1cc(F)ccc1O`, for which the viability at 24 h, 2.5 µM in data set [1] was determined as 99.2%. Further, the CC50 at 24 h in data set [2] is 15.7 µM. The figures for the Activity result in the data set on RAW264.7 [3] and in the data set with RAW264.7 [4] were “Toxic” and 93.7%, respectively.

For the compound `O=c1oc2ccc(Cl)cc2c(=O)n1-c1ccc(Cl)cc1F`, the viability at 24 h, 2.5 µM in data set [1] came to 99.4%. In data set [2], the CC50 at 24 h stood at 6.8 µM. Further, the Activity entry with RAW264.7 [3] was “Toxic”; in the data set with RAW264.7 [4] it was 32.8%.

Consider `O=C(Nc1ccc(Cl)cc1F)c1cc(I)ccc1O`, for which the viability at 24 h, 2.5 µM in data set [1] was found to be 94%. The 50% cytotoxic concentration (CC50) at 24 h in data set [2] amounted to 8.5 µM. Moreover, the Activity entry is reported as “Toxic” with RAW264.7 [3] and 26.1% in the data set on RAW264.7 [4].

As for `O=C(O)c1cc(I)ccc1O`, the viability at 24 h, 2.5 µM in data set [1] is 98.9%. Moreover, in data set [2], the CC50 at 24 h was more than 40 µM. Also, the Activity result with RAW264.7 [3] is listed as “Toxic”; in the data set on RAW264.7 [4], 90.5%.

On to `O=C1c2cc(Cl)ccc2Oc2cc([N+](=O)[O-])ccc2N1c1ccc(F)cc1F`, for which the viability at 24 h, 2.5 µM in data set [1] came to 99.6%. The CC50 at 24 h in data set [2] was more than 40 µM. For the same compound, the Activity result in the data set with RAW264.7 [3] is “Toxic”; in the data set on RAW264.7 [4], 70.6%.

Regarding `O=C1c2cc(I)ccc2Oc2cc([N+](=O)[O-])ccc2N1c1ccc(Cl)cc1F`, in data set [1], the viability at 24 h, 2.5 µM is 94.9%. Besides, the half-maximal cytotoxic concentration (CC50) at 24 h in data set [2] was more than 40 µM. Further, the Activity entry in the data set with RAW264.7 [3] was “Toxic”; in the data set with RAW264.7 [4], 75.2%.

As for `O=c1oc2ccc(Br)cc2c(=O)n1-c1ccc(I)cc1F`, in data set [1], the viability at 24 h, 2.5 µM was determined as 96.8%. Also, the CC50 at 24 h in data set [2] is 7.9 µM. Also, the Activity entry in the data set on RAW264.7 [3] is reported as “Toxic”; with RAW264.7 [4], 39%.

With `O=C(O)c1cc(Br)ccc1O`, the viability at 24 h, 2.5 µM in data set [1] was 101%. The 50% cytotoxic concentration (CC50) at 24 h in data set [2] is more than 40 µM. The results for the Activity result with RAW264.7 [3] and in the data set on RAW264.7 [4] were “Toxic” and 96.5%, respectively.

`O=c1oc2ccc(Cl)cc2c(=O)n1-c1ccc(F)cc1F`: in data set [1], the viability at 24 h, 2.5 µM turned out to be 116%. In data set [2], the CC50 at 24 h came out at 13.4 µM. For the same compound, the Activity result in the data set on RAW264.7 [3] is “Toxic”; in the data set on RAW264.7 [4], 91.9%.

Consider `O=C(Nc1ccc(Cl)cc1F)c1cc(F)ccc1O`, for which, in data set [1], the viability at 24 h, 2.5 µM amounted to 99.5%. For the same compound, in data set [2], the cytotoxic concentration (CC50) at 24 h worked out at 7.7 µM. The figures for the Activity entry with RAW264.7 [3] and in the data set with RAW264.7 [4] were “Toxic” and 27.1%, respectively.

Consider `O=C(O)c1cc(F)ccc1O`, for which the viability at 24 h, 2.5 µM in data set [1] turned out to be 102%. Also, the half-maximal cytotoxic concentration (CC50) at 24 h in data set [2] is more than 40 µM. For the same compound, the Activity result is recorded as “Toxic” in the data set with RAW264.7 [3] and 90.9% in the data set with RAW264.7 [4].

As for `O=c1oc2ccc(I)cc2c(=O)n1-c1ccc(I)cc1F`, the viability at 24 h, 2.5 µM in data set [1] is 107%. The CC50 at 24 h in data set [2] turned out to be 7.6 µM. Besides, the Activity result in the data set with RAW264.7 [3] is “Toxic”; in the data set with RAW264.7 [4], 36.1%.

For `O=c1oc2ccc(Br)cc2c(=O)n1-c1ccc(F)cc1F`, the viability at 24 h, 2.5 µM in data set [1] is 107%. In data set [2], the CC50 at 24 h was found to be 16 µM. The Activity entry is reported as “Toxic” in the data set on RAW264.7 [3] and 98.3% in the data set on RAW264.7 [4].

With `O=C1c2cc(Cl)ccc2Oc2cc([N+](=O)[O-])ccc2N1c1ccc(I)cc1F`, in data set [1], the viability at 24 h, 2.5 µM came out at 89.3%. Besides, the CC50 at 24 h in data set [2] is more than 40 µM. Further, the Activity entry in the data set with RAW264.7 [3] was “Toxic”; with RAW264.7 [4] it was 73.8%.

For `O=c1oc2ccc(Br)cc2c(=O)n1-c1ccc(Br)cc1F`, in data set [1], the viability at 24 h, 2.5 µM is 103%. In data set [2], the CC50 at 24 h was 7.2 µM. The Activity entry in the data set on RAW264.7 [3] is reported as “Toxic”; with RAW264.7 [4], 54.9%.

For the compound `O=C1c2cc(Br)ccc2Oc2cc([N+](=O)[O-])ccc2N1c1ccc(I)cc1F`, the viability at 24 h, 2.5 µM in data set [1] came to 93.2%. Further, the CC50 at 24 h in data set [2] was more than 40 µM. The Activity entry was “Toxic” with RAW264.7 [3] and 78.1% with RAW264.7 [4].

`O=C(Nc1ccc(F)cc1F)c1cc(Cl)ccc1O`: the viability at 24 h, 2.5 µM in data set [1] came to 109%. For the same compound, in data set [2], the CC50 at 24 h amounted to 14.6 µM. The Activity result in the data set with RAW264.7 [3] is reported as “Toxic”; in the data set with RAW264.7 [4], 93.3%.

With `O=C1c2cc(Cl)ccc2Oc2cc([N+](=O)[O-])ccc2N1c1ccc(Cl)cc1F`, in data set [1], the viability at 24 h, 2.5 µM was 100%. Further, the CC50 at 24 h in data set [2] is more than 40 µM. For the same compound, the Activity entry in the data set on RAW264.7 [3] was “Toxic”; with RAW264.7 [4], 59.4%.

As to `O=c1oc2ccc(I)cc2c(=O)n1-c1ccc(F)cc1F`, the viability at 24 h, 2.5 µM in data set [1] is 97.5%. In data set [2], the CC50 at 24 h worked out at 15.7 µM. The Activity entry with RAW264.7 [3] is “Toxic”; in the data set on RAW264.7 [4] it was 84.8%.

With `O=c1oc2ccc(F)cc2c(=O)n1-c1ccc(F)cc1F`, the viability at 24 h, 2.5 µM in data set [1] stood at 103%. Also, in data set [2], the CC50 at 24 h was 19.9 µM. For the same compound, the Activity entry with RAW264.7 [3] was “Toxic”; with RAW264.7 [4], 89.7%.

Consider `O=C1c2cc(F)ccc2Oc2cc([N+](=O)[O-])ccc2N1c1ccc(Br)cc1F`, for which the viability at 24 h, 2.5 µM in data set [1] is 98.8%. Also, the CC50 at 24 h in data set [2] was more than 40 µM. In addition, the values for the Activity result in the data set on RAW264.7 [3] and with RAW264.7 [4] were “Toxic” and 88.7%, respectively.

Consider `O=C(Nc1ccc(Br)cc1F)c1cc(I)ccc1O`, for which the viability at 24 h, 2.5 µM in data set [1] came to 104%. In addition, the half-maximal cytotoxic concentration (CC50) at 24 h in data set [2] turned out to be 8.4 µM. Also, the figures for the Activity result in the data set on RAW264.7 [3] and in the data set with RAW264.7 [4] were “Toxic” and 29.9%, respectively.

Turning to `O=c1oc2ccccc2c(=O)n1-c1ccc(I)cc1F`, the viability at 24 h, 2.5 µM in data set [1] was determined as 105%. The CC50 at 24 h in data set [2] turned out to be 24.5 µM. Besides, the Activity result with RAW264.7 [3] is “Toxic”; with RAW264.7 [4] it was 66.7%.

Regarding `O=C1c2cc(F)ccc2Oc2cc([N+](=O)[O-])ccc2N1c1ccc(Cl)cc1F`, the viability at 24 h, 2.5 µM in data set [1] turned out to be 91.2%. Further, the CC50 at 24 h in data set [2] was more than 40 µM. Besides, the Activity result with RAW264.7 [3] was “Toxic”; in the data set on RAW264.7 [4], 93.1%.

For the compound `O=C1c2cc(Cl)ccc2Oc2cc([N+](=O)[O-])ccc2N1c1ccc(Br)cc1F`, the viability at 24 h, 2.5 µM in data set [1] was determined as 100%. Further, the CC50 at 24 h in data set [2] was more than 40 µM. In addition, the Activity entry is recorded as “Toxic” in the data set on RAW264.7 [3] and 77.2% with RAW264.7 [4].

Take `O=C(Nc1ccc(F)cc1F)c1cc(Br)ccc1O`: the viability at 24 h, 2.5 µM in data set [1] came out at 91.9%. Moreover, the half-maximal cytotoxic concentration (CC50) at 24 h in data set [2] amounted to 13.8 µM. In addition, the Activity entry in the data set on RAW264.7 [3] was “Toxic”; in the data set with RAW264.7 [4] it was 95.2%.
